Laboratory results from ChEMBL document CHEMBL4665727, “Discovery of biphenyl pyrazole scaffold for neurodegenerative diseases: A novel class of acetylcholinesterase-centered multitargeted ligands” (Bioorg Med Chem Lett, 2020).
Activity calls are given as the source filed them. No cut-off for these calls is given here.

Legend:
Acetylcholinesterase [1] = biological target: T1, Acetylcholinesterase (Homo sapiens, UniProt P22303); assay: Binding affinity to AChE (unknown origin) assessed as dissociation constant by SPR analysis
[2] = biological target: T2, Microtubule-associated protein tau (Homo sapiens, UniProt P10636); assay: Binding affinity to tau (unknown origin) assessed as dissociation constant by isothermal titration calorimetry
[3] = Metabolic stability in human plasma; format: ADME, cell-free
[4] = Stability of compound in gastric fluid; format: physicochemical; settings: simulated gi fluid
[5] = biological target: T2, Microtubule-associated protein tau; assay: Inhibition of tau oligomerization in human […] cells by TR-FRET assay; format: cell-based
[6] = biological target: T2, Microtubule-associated protein tau; assay: Binding affinity to tau (unknown origin) assessed as dissociation constant by SPR analysis
Acetylcholinesterase [7] = biological target: T1, Acetylcholinesterase; assay: Inhibition of AChE (unknown origin) using acetylthiocholine iodide as substrate by UV-vis spectrophotometry based Ellman's method
[8] = biological target: T2, Microtubule-associated protein tau; assay: Binding affinity to tau (unknown origin) assessed as exothermal interaction by isothermal titration calorimetry
[9] = Permeability in human Caco-2 cells; format: ADME, cell-based
SH-SY5Y = assay: Protection against amyloid beta oligomer-induced cytotoxicity in human SH-SY5Y cells expressing wild-type Tau assessed as cell viability at 10 uM by MTT assay; format: functional; settings: read-out: Activity
[10] = Stability of compound in intestinal juice
[11] = biological target: T2, Microtubule-associated protein tau; assay: Binding affinity to tau (unknown origin) assessed as dissociation constant by microscale thermophoresis assay
[12] = Permeability of compound by PAMPA-BBB assay
HEL 299 = assay: Cytotoxicity against HEL 299 cells by MTT assay; format: cell-based; settings: human
Acetylcholinesterase [13] = biological target: T1, Acetylcholinesterase; assay: Mixed inhibition of AChE (unknown origin) using acetylthiocholine iodide as substrate by UV-vis spectrophotometry based Lineweaver-burk plot analysis

T1 sequence (P22303 whole entry): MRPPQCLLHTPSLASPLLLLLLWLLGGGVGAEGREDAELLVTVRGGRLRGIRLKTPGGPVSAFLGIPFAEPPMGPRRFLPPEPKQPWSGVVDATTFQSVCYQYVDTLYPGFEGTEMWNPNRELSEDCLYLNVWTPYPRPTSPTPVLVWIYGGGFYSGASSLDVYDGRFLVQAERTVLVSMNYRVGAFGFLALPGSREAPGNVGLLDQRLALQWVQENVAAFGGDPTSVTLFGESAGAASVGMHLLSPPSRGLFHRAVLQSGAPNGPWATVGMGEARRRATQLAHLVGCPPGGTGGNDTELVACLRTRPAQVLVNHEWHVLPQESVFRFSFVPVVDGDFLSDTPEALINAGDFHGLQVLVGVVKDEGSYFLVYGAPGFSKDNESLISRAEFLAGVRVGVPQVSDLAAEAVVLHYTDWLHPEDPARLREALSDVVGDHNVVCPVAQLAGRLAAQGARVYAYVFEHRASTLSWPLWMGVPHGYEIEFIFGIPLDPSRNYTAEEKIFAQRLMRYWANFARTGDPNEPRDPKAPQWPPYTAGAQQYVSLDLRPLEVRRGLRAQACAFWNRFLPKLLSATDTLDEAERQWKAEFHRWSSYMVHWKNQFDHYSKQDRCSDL
T2 sequence (P10636 whole entry): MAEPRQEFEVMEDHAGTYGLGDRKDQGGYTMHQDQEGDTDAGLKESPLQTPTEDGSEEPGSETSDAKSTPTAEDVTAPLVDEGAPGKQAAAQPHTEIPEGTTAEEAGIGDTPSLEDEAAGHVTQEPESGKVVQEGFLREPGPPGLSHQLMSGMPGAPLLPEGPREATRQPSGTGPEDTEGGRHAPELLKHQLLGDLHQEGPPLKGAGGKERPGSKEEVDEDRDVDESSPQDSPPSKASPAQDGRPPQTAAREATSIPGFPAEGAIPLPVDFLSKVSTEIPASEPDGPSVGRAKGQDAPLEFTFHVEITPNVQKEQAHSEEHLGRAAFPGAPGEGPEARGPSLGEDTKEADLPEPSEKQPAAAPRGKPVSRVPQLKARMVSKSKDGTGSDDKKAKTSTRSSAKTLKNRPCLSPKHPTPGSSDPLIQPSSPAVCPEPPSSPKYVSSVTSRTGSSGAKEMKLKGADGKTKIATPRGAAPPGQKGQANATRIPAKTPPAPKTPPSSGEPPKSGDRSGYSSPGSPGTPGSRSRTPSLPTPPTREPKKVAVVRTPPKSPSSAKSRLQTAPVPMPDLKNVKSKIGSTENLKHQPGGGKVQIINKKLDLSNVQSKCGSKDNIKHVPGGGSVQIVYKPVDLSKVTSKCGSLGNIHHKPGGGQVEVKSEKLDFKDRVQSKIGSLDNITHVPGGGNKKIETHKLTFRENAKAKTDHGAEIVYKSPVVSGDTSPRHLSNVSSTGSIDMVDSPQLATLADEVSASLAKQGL

## CCn1cc(CNCc2c[nH]nc2-c2ccc(-c3ccccc3)cc2)cn1
Acetylcholinesterase [1]
  Kd: 1410 nM
[2]
  Kd: 860 nM
[3]
  Stabilty: Stable
[4]
  Stabilty: Stable
[5]
  EC50: 250 nM
[6]
  Kd: 590 nM
Acetylcholinesterase [7]
  IC50: 350 nM
[8]
  deltaH: -36.9 kcal/mol
[9]
  permeability: Permeable
SH-SY5Y
  viability at 10 µM: 75.1%
[10]
  Stability: Stable
[11]
  Kd: 920 nM
[12]
  Papp: 33.5 ×10⁻⁶ cm/s
HEL 299
  Activity: Non-Toxic
Acetylcholinesterase [13]
  inhibition: Active

## CN(C)c1ccc2c(c1)Sc1cc(N(C)C)ccc1N2 [HYDROMETHYLTHIONINE]
SH-SY5Y
  viability at 10 µM: 32.1%

## COc1cc2c(cc1OC)C(=O)C(CC1CCN(Cc3ccccc3)CC1)C2 (centres undefined) [DONEPEZIL]
SH-SY5Y
  viability at 10 µM: 39.3%

## CC(C)c1ccc2c(c1)c(SC(C)(C)C)c(CC(C)(C)C(=O)O)n2Cc1ccc(Cl)cc1
SH-SY5Y
  viability at 10 µM: 52.4%

## Nc1c2c(nc3ccccc13)CCCC2 [TACRINE]
SH-SY5Y
  viability at 10 µM: 29.5%
